{
  "source": "paper PMC8951016",
  "about": "“Computational Design and Biological Evaluation of Analogs of Lupin Peptide P5 Endowed with Dual PCSK9/HMG-CoAR Inhibiting Activity” (Pharmaceutics, 2022)",
  "key": {"[1]": {"molecular_target": "T1, HMG-CoAR (catalytic domain) (Homo sapiens, UniProt P04035)", "T1 construct": "finally the HMG-CoAR (cata- lytic domain) (2 µL); purchased Sigma-Aldrich", "T1 sequence (P04035 426-888 limits assumed)": "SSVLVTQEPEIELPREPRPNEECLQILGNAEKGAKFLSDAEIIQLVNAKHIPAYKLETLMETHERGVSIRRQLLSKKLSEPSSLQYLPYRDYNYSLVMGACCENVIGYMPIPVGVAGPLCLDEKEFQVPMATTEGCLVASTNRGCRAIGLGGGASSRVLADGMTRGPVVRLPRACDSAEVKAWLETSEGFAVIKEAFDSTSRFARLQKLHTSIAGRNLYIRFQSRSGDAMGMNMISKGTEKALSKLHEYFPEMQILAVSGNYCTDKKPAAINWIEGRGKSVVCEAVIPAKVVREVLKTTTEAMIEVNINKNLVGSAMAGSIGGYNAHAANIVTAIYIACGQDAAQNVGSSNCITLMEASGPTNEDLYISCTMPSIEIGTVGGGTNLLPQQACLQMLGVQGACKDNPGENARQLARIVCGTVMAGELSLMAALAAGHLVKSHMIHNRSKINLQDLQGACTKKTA", "test": "HMG-CoAR activity assay", "type": "biochemical", "conditions": "10–500 µM, 37 °C, NADPH oxidation, absorbance 340 nm at 0 and 10 min; four independent experiments in duplicate", "description": "The experiments were carried out following the manufacturer instructions and optimized protocol. See Supplementary Materials for further details. […]\ncLex Co., Nagano, Japan). The peptides (P5, P5-Best, P-H6A, and P5-S7A) were synthe-sized by the company GeneScript (Piscataway, NJ, USA) at >95% purity. The antibody against HMG-CoAR was bought from Abcam (Cambridge, UK). Phenylmethanesulfonyl fluoride (PMSF), Na-orthovanadate inhibitors, and the antibodies against rabbit Ig-horse-radish peroxidase (HRP), mouse Ig-HRP, and SREBP-2 (which recognizes epitope located in a region between 833–1141 and bands at about 132 kDa) were purchased from Santa Cruz Biotechnology Inc. (Santa Cruz, CA, USA). The antibodies against hepatocyte nu-clear factor 1-alpha (HNF1-alpha) and PCSK9 were bought from GeneTex (Irvine, CA, USA). The inhibitor cocktail Complete Midi was from Roche (Basel, Switzerland). Mini protean TGX pre-cast gel 7.5% and Mini nitrocellulose Transfer Packs were purchased from BioRad (Hercules, CA, USA).\nHepG2 Cell Culture Conditions and Treatment. The HepG2 cell line was bought from ATCC (HB-8065, ATCC from LGC Standards, Milan, Italy) and was cultured in DMEM high glucose with stable L-glutamine, supplemented with 10% FBS, 100 U/mL penicillin, 100 µg/mL streptomycin (complete growth medium) with incubation at 37 °C […]\nHMG-CoAR Aactivity Assay. The experiments were carried out following the man-ufacturer instructions and optimized protocol. The assay buffer, NADPH, substrate solution, and HMG-CoAR were provided in the HMG-CoAR Assay Kit (Sigma Aldrich SRL, Milan, Italy). […] Subsequently, the samples were mixed and the absorbance at 340 nm read by the microplate reader Synergy H1 (Winooski, VT, USA) at time 0 and 10 min. The HMG-CoAR-dependent oxidation of NADPH and the inhibition properties of peptides were measured by absorbance reduction, which is directly proportional to enzyme activ- […]\n(§1) In Vitro PCSK9-LDLR Binding Assay. […] The reaction was stopped with 2.0 M sulfuric acid and the absorbance at 450nm was measured using the Synergy H1 fluorescent plate reader […]"}, "PCSK9-LDLR [2]": {"molecular_target": "T2, PCSK9-LDLR (Homo sapiens, UniProt Q8NBP7)", "T2 construct": "purchased CycLex Co., Nagano, Japan (CircuLex)", "T2 sequence (Q8NBP7 153-692)": "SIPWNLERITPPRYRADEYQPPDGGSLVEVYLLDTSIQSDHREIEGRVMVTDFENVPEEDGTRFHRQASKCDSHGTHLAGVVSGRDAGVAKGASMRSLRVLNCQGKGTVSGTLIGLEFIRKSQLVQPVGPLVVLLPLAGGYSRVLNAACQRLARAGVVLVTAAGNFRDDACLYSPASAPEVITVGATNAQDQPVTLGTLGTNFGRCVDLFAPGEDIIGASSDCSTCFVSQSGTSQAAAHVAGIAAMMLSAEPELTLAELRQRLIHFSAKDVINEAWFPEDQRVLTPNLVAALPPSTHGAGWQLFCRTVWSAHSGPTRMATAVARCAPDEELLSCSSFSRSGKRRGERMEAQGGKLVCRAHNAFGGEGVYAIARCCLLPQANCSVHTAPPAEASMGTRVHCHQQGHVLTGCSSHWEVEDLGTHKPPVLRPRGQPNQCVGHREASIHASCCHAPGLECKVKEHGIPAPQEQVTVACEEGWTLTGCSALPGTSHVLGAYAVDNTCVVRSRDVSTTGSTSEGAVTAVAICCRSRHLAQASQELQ", "T2 sequence (Q8NBP7 31-152 partner limits assumed)": "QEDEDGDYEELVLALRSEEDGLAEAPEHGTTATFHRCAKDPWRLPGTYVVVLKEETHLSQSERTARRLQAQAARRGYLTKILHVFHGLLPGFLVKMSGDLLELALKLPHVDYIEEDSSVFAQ", "test": "In vitro PCSK9-LDLR binding assay", "conditions": "0.1–100 µM, LDLR-AB coated plate, 2 h at RT, absorbance 450 nm; four independent experiments in duplicate", "description": "Peptides P5 and P5 analogs (0.1–100 µM) were tested using the in vitro PCSK9-LDLR binding assay (CycLex Co., Nagano, Japan) following the manufacture instructions and conditions already optimized. Further details are provided in Supplementary Materials. […]\ncLex Co., Nagano, Japan). The peptides (P5, P5-Best, P-H6A, and P5-S7A) were synthe-sized by the company GeneScript (Piscataway, NJ, USA) at >95% purity. The antibody against HMG-CoAR was bought from Abcam (Cambridge, UK). Phenylmethanesulfonyl fluoride (PMSF), Na-orthovanadate inhibitors, and the antibodies against rabbit Ig-horse-radish peroxidase (HRP), mouse Ig-HRP, and SREBP-2 (which recognizes epitope located in a region between 833–1141 and bands at about 132 kDa) were purchased from Santa Cruz Biotechnology Inc. (Santa Cruz, CA, USA). […]\nHMG-CoAR Aactivity Assay. […] Subsequently, the samples were mixed and the absorbance at 340 nm read by the microplate reader Synergy H1 (Winooski, VT, USA) at time 0 and 10 min. The HMG-CoAR-dependent oxidation of NADPH and the inhibition properties of peptides were measured by absorbance reduction, which is directly proportional to enzyme activ- […]\nas §1"}, "[3]": {"molecular_target": "T1, HMG-CoAR (catalytic domain)", "conditions": "metabolite; read-out: IC50, HMG-CoAR activity (P5-met); cited from earlier work"}, "LDLR": {"tested_on": "LDLR", "parameters": "method as in 3 sources, ref 48 = [48]; doi:10.1111/jfbc.12757; 48. Lammi C. Zanoni C. Arnoldi A. Aiello G. […] (P3), a peptide from lupin protein, absorbed by Caco-2 cells, modulates cholesterol metabolism in HepG2 cells via SREBP-1 activation J. Food B ||| ref 22 = [22]; doi:10.1016/j.jff.2017.02.009; 22. Zanoni C. Aiello G. Arnoldi A. Lammi C. Investigations on the hypocholesterolaemic activity of […] and LTFPGSAED, two peptides from lupin β-conglutin: Focus on LDLR and PCSK9 pathways J. Fu ||| ref 24 = [24]; PMID 33808034; doi:10.3390/nu13030863; 24. Lammi C. Aiello G. Bollati C. Li J. Bartolomei M. Ranaldi G. Ferruzza S. Fassi E.M.A. Grazioso G. Sambuy Y. Trans-Epithelial Transport, Metabolism, and Biological Activity Assessment of the Multi-", "conditions": "cellular level, through modulation of SREBP-2; cited from earlier work"}, "PCSK9-LDLR [4]": {"molecular_target": "T2, PCSK9-LDLR", "conditions": "cited from earlier work; for impairment of PCSK9-LDLR binding vs control: fixed concentration of 100 µM"}, "PCSK9": {"tested_on": "PCSK9", "parameters": "method as in 3 sources, ref 49 = [49]; PMID 35011066; doi:10.3390/nu14010193; 49. Macchi C. Greco M.F. Ferri N. Magni P. Arnoldi A. Corsini A. Sirtori C.R. Ruscica M. Lammi C. Impact of Soy β-Conglycinin Peptides on PCSK9 Protein Expression in HepG2 Cells Nutrients 2021 14 193 ||| ref 22 = [22]; doi:10.1016/j.jff.2017.02.009; 22. Zanoni C. Aiello G. Arnoldi A. Lammi C. Investigations on the hypocholesterolaemic activity of […] and LTFPGSAED, two peptides from lupin β-conglutin: Focus on LDLR and PCSK9 pathways J. Fu ||| ref 24 = [24]; PMID 33808034; doi:10.3390/nu13030863; 24. Lammi C. Aiello G. Bollati C. Li J. Bartolomei M. Ranaldi G. Ferruzza S. Fassi E.M.A. Grazioso G. Sambuy Y. Trans-Epithelial Transport, Metabolism, and Biological Activity Assessment of the Multi-", "conditions": "cellular level, through modulation of HNF-1α; cited from earlier work"}, "[5]": {"conditions": "read-out: IC50, PCSK9-LDLR binding (Pep2-8 analogs)"}},
  "note": "Where two headings read alike, the source gives them in different places. No end group written: not given here.",
  "data": [
    {"substance": "LILPKASDAD [Peptide P5-H6A]", "values": [
      {"measurement": "IC50", "setting": "[1]", "value": 74.4, "unit": "µM"},
      {"measurement": "IC50", "setting": "PCSK9-LDLR [2]", "value": 9, "unit": "µM"}
    ]},
    {"substance": "LILPKHADAD [Peptide P5-S7A]", "values": [
      {"measurement": "IC50", "setting": "[1]", "value": 73.8, "unit": "µM"},
      {"measurement": "IC50", "setting": "PCSK9-LDLR [2]", "value": 1.45, "unit": "µM"}
    ]},
    {"substance": "LPKHSDAD [Peptide P5-met, breakdown fragment (metabolite) of P5]", "values": [
      {"measurement": "IC50", "setting": "[3]", "value": 175, "unit": "µM"},
      {"measurement": "LDLR level (P5-met, words)", "setting": "LDLR", "value": "improves the LDLR"},
      {"measurement": "IC50", "setting": "PCSK9-LDLR [4]; metabolite, read-out: IC50, PCSK9-LDLR binding (P5-met)", "value": 1.7, "unit": "µM"},
      {"measurement": "PCSK9 level (P5-met, words)", "setting": "PCSK9", "value": "reduces PCSK9 levels"}
    ]},
    {"substance": "LYLPKHSDRD [Peptide P5-Best]", "values": [
      {"measurement": "IC50", "setting": "[1]", "value": 88.9, "unit": "µM"}
    ]},
    {"substance": "[T4R,W12Y]Pep2-8: analog of peptide Pep2-8 (TVFRSWEEYLDYV)", "values": [
      {"measurement": "impairment of PCSK9-LDLR binding vs control", "setting": "PCSK9-LDLR [4]", "value": "−93.0", "unit": "%"},
      {"measurement": "IC50", "setting": "PCSK9-LDLR [4]; [5]", "value": "14.5 ± 1.3", "unit": "µM"}
    ]},
    {"substance": "[Y9A]Pep2-8: analog of peptide Pep2-8 (TVFTSWEEALDWV)", "values": [
      {"measurement": "impairment of PCSK9-LDLR binding vs control", "setting": "PCSK9-LDLR [4]", "value": "−69.8", "unit": "%"},
      {"measurement": "IC50", "setting": "PCSK9-LDLR [4]; [5]", "value": "27.1 ± 1.2", "unit": "µM"}
    ]}
  ]
}
